Some test systems named below: RPMI-8226 leukemia; DU-145 prostate; SK-MEL-5 melanoma; HCT-15 colon; NCI-H23 lung; A498 renal; HS 578T breast; EKVX NSCLC; MALME-3M melanoma; IGROV1 ovarian.
What all share (assay): inhibition of tumour cell growth, NCI panel, 48 h

The structures appear in SMILES notation.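 Following 48 hours of exposure in 96-well plates, responses at five concentrations were used to interpolate endpoints linearly. At the GI50, growth is halved. TGI marks complete inhibition of growth.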 Some results are limits rather than exact numbers.

For the molecule `O=C1C=C(Cl)C(=O)C(c2ccc(Cl)cc2)=C1`, the TGI in the test on RPMI-8226 leukemia came to 83.8 µM; in the test with DU-145 prostate it was 46.5 µM; with SK-MEL-5 melanoma, 34.3 µM; in the test with HCT-15 colon it was 47.5 µM; with NCI-H23 lung it was 67.3 µM; in the test on A498 renal it was 50.8 µM. The TGI in the test with HS 578T breast is 74.9 µM; in the test on EKVX NSCLC, 30.2 µM; in the test with MALME-3M melanoma, 39 µM; in the test on IGROV1 ovarian, 30.8 µM.

As to `COc1cc(-c2nn(-c3ccc(NC(=O)c4ccc(Cl)c(C(F)(F)F)c4)cc3)cc2-c2ccncc2)ccc1Cl`, the GI50 in the test with RPMI-8226 leukemia was 1.79 µM; in the test with DU-145 prostate it was 4.59 µM; with SK-MEL-5 melanoma it was 1.66 µM; in the test on HCT-15 colon, 1.42 µM; with NCI-H23 lung, 3.06 µM; with A498 renal, 2.4 µM. The GI50 with HS 578T breast was 1.23 µM; with EKVX NSCLC, 2.18 µM; with MALME-3M melanoma, 1.46 µM; in the test with IGROV1 ovarian, 3.96 µM. Moreover, the TGI was 6.47 µM in the test on RPMI-8226 leukemia; above 100 µM in the test with DU-145 prostate; 3.15 µM in the test with SK-MEL-5 melanoma; 4.21 µM in the test on HCT-15 colon; above 100 µM with NCI-H23 lung; 17.9 µM in the test with A498 renal. Also, the TGI was 4.03 µM in the test with HS 578T breast, above 65.1 µM in the test with EKVX NSCLC, 5.05 µM in the test on MALME-3M melanoma and above 100 µM in the test with IGROV1 ovarian.

`CCCCCN(CCCCC)CC(O)c1cc(C)c2ccc3cc(C(C)C)ccc3c2c1` (stereo not given): the GI50 was 2.11 µM in the test with RPMI-8226 leukemia; 1.89 µM in the test with DU-145 prostate; 1.83 µM with SK-MEL-5 melanoma; 1.81 µM in the test on HCT-15 colon; 1.77 µM with NCI-H23 lung; 1.56 µM in the test on A498 renal. The GI50 with HS 578T breast is 1.93 µM; with EKVX NSCLC it was 1.76 µM; in the test with MALME-3M melanoma, 1.92 µM; in the test with IGROV1 ovarian it was 1.79 µM. Also, the TGI was 4.81 µM in the test with RPMI-8226 leukemia; 3.37 µM in the test on DU-145 prostate; 3.62 µM in the test with SK-MEL-5 melanoma; 3.43 µM in the test with HCT-15 colon; 3.4 µM in the test on NCI-H23 lung; 2.94 µM in the test with A498 renal. For the same molecule, the TGI with HS 578T breast was determined as 4.65 µM; with EKVX NSCLC, 3.34 µM; with MALME-3M melanoma, 3.85 µM; in the test on IGROV1 ovarian it was 3.47 µM.

`CC(C)CCC[C@@H](C)[C@H]1CC[C@H]2[C@@H]3CC=C4C[C@@H](C(C(=O)O)C(=O)O)CC[C@]4(C)[C@H]3CC[C@]12C`: the GI50 in the test with RPMI-8226 leukemia was 0.353 µM; in the test on DU-145 prostate, 0.115 µM; in the test on SK-MEL-5 melanoma, 0.113 µM; with HCT-15 colon, 0.148 µM; with NCI-H23 lung it was 0.147 µM; with A498 renal, 0.0862 µM. Besides, the GI50 was 0.242 µM with HS 578T breast, 0.0786 µM in the test on EKVX NSCLC, 0.134 µM with MALME-3M melanoma and 0.166 µM in the test on IGROV1 ovarian. Further, the TGI was found to be 0.938 µM in the test on RPMI-8226 leukemia; 0.274 µM in the test with DU-145 prostate; 0.266 µM in the test with SK-MEL-5 melanoma; 0.612 µM with HCT-15 colon; 0.63 µM with NCI-H23 lung; 0.216 µM in the test on A498 renal. The TGI in the test with HS 578T breast amounted to 2.58 µM; in the test with EKVX NSCLC, 0.245 µM; with MALME-3M melanoma, 0.502 µM; in the test on IGROV1 ovarian, 1.12 µM.

On to `O=C1C(Cl)=C(Nc2cccc(Cl)c2)C(=O)N1Cc1ccc(Cl)cc1Cl`, for which the GI50 was 3.18 µM in the test with RPMI-8226 leukemia; 5.87 µM with DU-145 prostate; 0.321 µM in the test with SK-MEL-5 melanoma; 0.0981 µM with HCT-15 colon; 2.14 µM with NCI-H23 lung; 0.771 µM in the test on A498 renal. Also, the GI50 with HS 578T breast was 1.23 µM; with EKVX NSCLC, 9.31 µM; in the test on MALME-3M melanoma, 4.17 µM; in the test on IGROV1 ovarian, below 0.023 µM. Besides, the TGI in the test with RPMI-8226 leukemia came to 15.4 µM; with DU-145 prostate, 18.2 µM; in the test on SK-MEL-5 melanoma it was 4.5 µM; with HCT-15 colon, 8.84 µM; in the test with NCI-H23 lung it was 25.6 µM; in the test on A498 renal it was 7.12 µM. The TGI with HS 578T breast was found to be 22.9 µM; in the test with EKVX NSCLC, 34.4 µM; in the test on MALME-3M melanoma, 19 µM; in the test on IGROV1 ovarian it was 9.15 µM.

For the molecule `Cc1ccc(NC2=C(Cl)C(=O)N(Cc3ccccc3)C2=O)cc1O`, the GI50 in the test with RPMI-8226 leukemia is 9.26 µM; in the test on DU-145 prostate, 60.1 µM; with SK-MEL-5 melanoma it was 15.5 µM; in the test with HCT-15 colon it was 33.5 µM; in the test with NCI-H23 lung, 34.3 µM; in the test on A498 renal it was 7.18 µM. The GI50 in the test on HS 578T breast was 25.9 µM; in the test on EKVX NSCLC, 17.8 µM; with MALME-3M melanoma, 24.1 µM; in the test with IGROV1 ovarian, 35.4 µM. Further, the TGI in the test on RPMI-8226 leukemia was 47.5 µM; in the test with DU-145 prostate it was above 100 µM; with SK-MEL-5 melanoma, 37.5 µM; with HCT-15 colon, above 100 µM; in the test on NCI-H23 lung, above 100 µM; in the test with A498 renal, 33.1 µM. Besides, the TGI is 83.4 µM in the test with HS 578T breast, 52.6 µM in the test on EKVX NSCLC, above 100 µM in the test on MALME-3M melanoma and above 100 µM with IGROV1 ovarian.

These data come from PubChem BioAssay (NCI).
